Experimental data published in patent US8598316B2, “Molecules that selectively home to vasculature of pre-malignant dysplastic lesions or malignancies” (priority 2003, dated 2013).

How the values were obtained:
squamous cell carcinomas = experiment: In vivo homing of individual phage clones to skin tumors of K14-HPV16 mice; design: species or system mouse; conditions: phage-displayed peptide, intravenous injection, tumor-bearing K14-HPV16 mice
Text: (§1) To test homing specificity of the selected peptides, purified phage displaying a single recombinant sequence were intravenously injected into K14HPV16 mice bearing protuberant ear or trunk tumors at 9 to 12 months of age to assess homing to squamous cell carcinomas, or alternatively injected into younger K14HPV16 mice presenting with multifocal dysplasias but no tumors. Both neoplastic tissues and normal control organs were collected and assayed for phage accumulation. Phage displaying the peptide CRAKSKVAC (SEQ ID NO: 9), which appeared with the highest frequency in both the ex vivo and in vivo sequence pools (5 and 15 times, respectively), were 1500-fold enriched in dysplastic skin relative to non-recombinant control phage. However, phage displaying peptide. […] Several other dysplasia-selected clones also differentiated poorly between control tissues and dysplastic skin; seven of the nine dysplasia-selected phage clones appeared to be responsible for the overall enrichment of recombinant phage in control tissues in the final in vivo round of selection as shown in FIG. 1A (right panel), and were not studied further.
(§2) To isolate phage that selectively home to squamous cell carcinomas (SCCs), two rounds of ex vivo panning selections were performed followed by two rounds of in vivo panning in K14-HPV16 mice having tumors histologically confirmed as squamous cell carcinoma grades II-IV (Coussens, supra, 1996). The enrichment rose from 6-fold relative to non-recombinant phage in the second ex vivo round to greater than 70-fold relative to non-recombinant phage in the second in vivo round (the fourth sequential round overall) as shown in FIG. 1B. From 192 sequenced phage clones, fifteen were selected for further analysis based on their frequency (48 from ex vivo round 2, 48 from in vivo round 1, and 96 from in vivo round 2) and their increased prevalence in the in vivo selections. Of these, four clones displaying the following amino acid sequences bound to a K14-HPV16 tumor-derived cell suspension ex vivo: CGKRK (SEQ ID NO: 6), CGTKRKC (SEQ ID NO: 11), CDTAVVEGL (SEQ ID NO: 12) and CDTRL (SEQ ID NO: 7). Phage-displaying the sequence CDTAVVEGL (SEQ ID NO: 12) also were 340-fold enriched in tumors in vivo relative to non-recombinant control phage.

[1] = test system: K14-HPV16 tumor-derived cell suspension; experiment: Ex vivo phage binding to tumor cell suspension; type: cell-based, mouse; conditions: phage-displayed peptide
Protocol: (§3) To isolate peptides specific for dysplastic lesions, two rounds of selection were performed ex vivo followed by one round of selection in vivo. […] Phage selections and validations were performed essentially as described in Laakkonen et al., Nat. Med. 8:751-755 (2002).
as §2

[2] = test system: breast carcinomas in the MMTV-PyMT transgenic mouse model; experiment: Fluorescein-labeled peptide homing, MMTV-PyMT transgenic model; type: in vivo; conditions: intravenous
Protocol: (§4) To analyze homing selectivity, the K14-HPV16 squamous cell cancer-homing peptides, CGKRK (SEQ ID NO: 6) and CDTRL (SEQ ID NO: 7), were analyzed for the ability to home to endothelium in tumors of different tissue origins and in tumors localized to different anatomical locations. In particular, three subcutaneously implanted tumors and two tumors produced in transgenic animal models were examined for accumulation of fluorescein-labeled peptides following intravenous injection
(§5) RIP1-Tag2 mice were used at 12 weeks of age, at which time all mice had pancreatic islet tumors. MMTV-PyMT mice were 4 to 6 months old and carried palpable mammary tumors. Cells for subcutaneous inoculation to produce transplant tumors were cultured in 10% fetal calf serum (FCS) in Dulbecco's Modified Eagle's Media (DMEM). Tumors were generated by subcutaneously injecting 10^6 cells into the chest skin of FVB/n (PDSC5) or Balb/c nude (MDA-MB-435 and C8161) mice. Mice bearing subcutaneous transplant tumors had tumors with an approximate diameter of 1 centimeter. PDSC5 tumors and MDA-MB-435 xenografts reached this size about 9 weeks post-injection while C8161 xenografts reached a size of 1 cm about three weeks post-injection.

[3] = test system: PDSC5, a K14-HPV16 tumor-derived cell line; experiment: Fluorescein-labeled peptide homing, PDSC5 subcutaneous transplant tumor; type: in vivo, mouse; conditions: intravenous, subcutaneous tumor in FVB/n mice
Protocol: as §4, §5

[4] = test system: angiogenic islets (dysplasias) or tumors in the RIP-Tag transgenic mouse model of pancreatic islet cell carcinoma; experiment: Fluorescein-labeled peptide homing, RIP-Tag transgenic model; type: in vivo; conditions: intravenous
Protocol: as §4, §5

[5] = test system: C8161 human melanoma line; experiment: Fluorescein-labeled peptide homing, C8161 xenograft; type: in vivo, mouse; conditions: intravenous, subcutaneous tumor in Balb/c nude mice
Protocol: as §4, §5

[6] = test system: normal skin and control tissues; experiment: In vivo phage accumulation in normal skin, hyperplastic skin and control organs; design: species or system mouse; conditions: phage-displayed peptide; for homing to normal skin of FVB/n mice: wild-type FVB/n mice; for accumulation in control tissues / normal organs: intravenous injection
Text: as §1

[7] = test system: CD31-positive endothelial cells; experiment: Immunohistochemical localization of intravenously injected phage (anti-T7 / anti-CD31); type: in vivo, mouse; conditions: phage-displayed peptide, intravenous; 4 to 6 month-old dysplasia-bearing or 9 to 12 month-old tumor-bearing K14-HPV16 mice
Text: To characterize the nature of the selectivity of the dysplasia- and tumor-homing peptides, K14-HPV16 mice were intravenously injected with cloned phage displaying a particular peptide, and phage localization visualized using histological procedures. Peptide localization was further analyzed with chemically synthesized fluorescein-labeled peptides.
Phage were intravenously injected into 4 to 6 month-old dysplasia-bearing mice with dysplasia-homing phage bearing CSRPRRSEC (SEQ ID NO: 3). In parallel, a set of 9 to 12 month-old tumor-bearing mice were infused with one of the tumor-homing phage CGTKRKC (SEQ ID NO: 11), CGKRK (SEQ ID NO: 6) or CDTRL (SEQ ID NO: 7). Various tissues were collected from each mouse and analyzed by double label immunohistochemical staining using an anti-T7 antibody to detect phage and an anti-CD31 antibody to detect endothelial cells of the vasculature.
(§6) Areas of skin, tumors and various organs were collected and either fixed in formalin, dehydrated through serial alcohols and embedded in paraffin, or directly embedded in OCT medium (Fisher Scientific). K14-HPV16 dysplasia and tumor samples were graded by evaluating hematoxylin & eosin and anti-keratin staining on 5 μm paraffin sections under a light microscope (Coussens et al., supra, 1996). Rat anti-mouse CD31 and rat anti-mouse Meca-32 (BD Pharmingen; San Diego, Calif.) were used for vascular immunostaining on 10 μm frozen sections. Anti-phage staining and biodistribution of fluorescein-labeled peptides were performed essentially as described in Laakkonen et al., supra, 2002.

[8] = test system: dysplastic skin vasculature and tumor vasculature; experiment: Localization of intravenously injected fluorescein-labeled peptides in K14-HPV16 mice (Meca-32 staining); type: in vivo, mouse; conditions: intravenous, 10 minutes; for peptide localization in dysplastic skin of tumor-bearing mice / peptide localization in squamous tumor: tumor-bearing K14-HPV16 mice; for peptide localization in dysplastic skin of non-tumor-bearing mice: younger dysplasia-bearing K14-HPV16 mice
Protocol: Both younger dysplasia-bearing and older tumor-bearing K14-HPV16 mice were injected with fluorescein-labeled peptides. After 10 minutes, both normal and neoplastic tissues were collected; tissue sections were prepared and stained with antibodies to both CD31 and a second endothelial marker, the cell-surface antigen Meca-32. Similar results were obtained with the two endothelial marker antibodies; the data for Meca-32 are shown in FIG. 3, in which localization of intravenously infused peptides and antibody was visualized by two-color fluorescence microscopy.
as §6

[9] = test system: MDA-MB-435 human breast cancer line; experiment: Fluorescein-labeled peptide homing, MDA-MB-435 xenograft; type: in vivo, mouse; conditions: for homing to MDA-MB-435 xenograft: intravenous, subcutaneous tumor in Balb/c nude mice
Protocol: as §4, §5

cultured tumor cells = experiment: Binding to cultured tumor cells; type: cell-based
dysplastic skin lesions = experiment: In vivo homing of individual phage clones to dysplastic skin of K14HPV16 mice; design: species or system mouse; conditions: phage-displayed peptide, intravenous injection
Protocol: as §3, §1

[10] = test system: hyperplastic skin of 1 to 2 month-old K14-HPV16 mice; experiment: Ex vivo phage binding to hyperplastic skin; type: cell-based, mouse; conditions: phage-displayed peptide
mitochondrial membranes = conditions: at a concentration of 10 μM; cited from earlier work

| Substance | binding to K14-HPV16 tumor-derived cell suspension ex vivo [1] | homing to tumor (squamous cell carcinomas) | homing to angiogenic islets or tumors of RIP-Tag mice [4] | tissue localization of phage by immunohistochemical staining [7] | peptide localization in dysplastic skin of tumor-bearing mice [8] | peptide localization in squamous tumor [8] | peptide localization in dysplastic skin of non-tumor-bearing mice [8] | accumulation in control tissues / normal organs [6] | homing to dysplastic skin (dysplastic skin lesions) | other results |
| --- | --- | --- | --- | --- | --- | --- | --- | --- | --- | --- |
| CDTAVVEGL (phage-displayed) | bound | – | – | – | – | – | – | – | – | enrichment in tumors in vivo relative to non-recombinant control phage (squamous cell carcinomas): 340 fold |
| CDTRL [tumor-homing peptide] | bound | variable preference for squamous cell carcinomas and dysplastic lesions | neither peptide CGKRK (SEQ ID NO: 6) nor CDTRL (SEQ ID NO: 7) homed to angiogenic islets (dysplasias) or tumors | localized to large, dilated vessels throughout the dysplastic and hyperplastic skin | at lower levels | primarily detected in tumor vasculature | not detected in the dysplastic skin of younger non-tumor bearing mice | – | – | homing to MMTV-PyMT breast carcinomas [2]: did home to breast carcinomas; homing to PDSC5 transplant tumor [3]: accumulated only in the melanoma xenografts; homing to C8161 melanoma xenograft [5]: accumulated only in the melanoma xenografts; affinity for hyperplastic skin ([6]; in vivo, K14-HPV16 mice): little affinity for hyperplastic skin; homing to normal skin of FVB/n mice ([6]; in vivo): no significant homing to normal skin; homing to MDA-MB-435 xenograft [9]: accumulated only in the melanoma xenografts; binding to cultured tumor cells (cultured tumor cells): bind a range of cultured tumor cells |
| CGKRK [tumor-homing peptide] | bound | marked preference for the tumor | neither peptide CGKRK (SEQ ID NO: 6) nor CDTRL (SEQ ID NO: 7) homed to angiogenic islets (dysplasias) or tumors | accumulated in tumor tissue | at lower levels | primarily detected in tumor vasculature | not detected in the dysplastic skin of younger non-tumor bearing mice | very low levels | Some homing to dysplastic lesions | homing to MMTV-PyMT breast carcinomas [2]: did home to breast carcinomas; enrichment in tumors in vivo relative to non-recombinant control phage (squamous cell carcinomas): 80 to 1,000 fold; homing to PDSC5 transplant tumor [3]: homed to cells in each of the three transplant tumors; homing to C8161 melanoma xenograft [5]: homed to cells in each of the three transplant tumors; subcellular localization in vascular cells ([9]; FIG. 4D, endothelial cells (CD31, Meca-32)): localized in the cytoplasm and nuclei of vascular cells; homing to MDA-MB-435 xenograft [9]: homed to cells in each of the three transplant tumors; binding to cultured tumor cells (cultured tumor cells): bind a range of cultured tumor cells |
| CGTKRKC (phage-displayed) | bound | – | – | detected to a lesser extent in dysplastic skin of tumor-bearing mice | – | – | – | – | – | – |
| CNRRTKAGC (phage-displayed) | – | – | – | – | – | – | – | did not appreciably home to normal organs | highly selective for dysplastic skin | – |
| CRAKSKVAC (phage-displayed) | – | – | – | – | – | – | – | accumulated with similar frequency in normal skin, kidney and brain | – | enrichment in dysplastic skin relative to non-recombinant control phage (dysplastic skin lesions): 1500 fold |
| CSRPRRSEC [dysplasia-homing peptide from CX7C library] | – | little homing to the tumor | does not recognize pre-malignant lesions | accumulated in dysplastic skin | co-localized with Meca-32 in dysplastic skin vasculature | not detected within the squamous tumor | co-localized with Meca-32 in dysplastic skin vasculature | did not significantly accumulate in control tissues | effectively homed to dysplastic chest skin and dysplastic ear skin | binding to hyperplastic skin ex vivo [10]: did not bind to hyperplastic skin; homing to normal skin of FVB/n mice ([6]; in vivo): did not home to normal skin of FVB/n mice; enrichment in dysplastic skin relative to non-recombinant control phage (dysplastic skin lesions): ~350 fold; homing to dysplastic skin (dysplastic skin lesions; listed as CSRPRRSRC): maintained the ability to home |
| D(KLAKLAK)2 | – | – | – | – | – | – | – | – | – | mitochondrial swelling (mitochondrial membranes): marked mitochondrial swelling |
